# US10626105B2, “Deuterium-substituted pyridin- and pyrimidin-2-yl-methylamine compounds” (Auspex Pharmaceuticals, Inc., priority 2016, dated 2020)
# Test: In vitro human liver microsomal stability assay
# Format: in vitro ADME
# Settings: human liver microsomes 0.5 mg/mL protein, NADPH 2 mM, pH 7.4, 1 μM test compound, 37 °C, 0-45 min; change relative to non-deuterated (d0) comparative compound
# Description: In Vitro Liver Microsomal Stability Assay
# Human liver microsomal stability assays were conducted at 0.5 mg per mL liver microsome protein with NADPH (2 mM, pH 7.4). Test compounds were prepared as solutions in DMSO and added to the assay mixture (1 μM, final concentration in incubation) to be incubated at 37±1° C. Reactions were initiated with the addition of cofactor and are stopped at 0, 5, 15, 30, and 45 min after cofactor addition with stop reagent (acetonitrile). After quenching, plates containing samples are vibrated for 10 min (600 rpm/min) and then centrifuged at 5594 g for 15 min. Supernatant fractions were analyzed by LC-MS/MS to determine the percent remaining and estimate the degradation half-life of the test compounds.
Compound,Clearance % change over d0,Half-life % change over d0
"[2H]C([2H])([2H])c1cnc(CNCC2(F)CCN(C(=O)c3ccc(F)c(Cl)c3)CC2)nc1 [Example 10, (3-chloro-4-fluorophenyl)(4-fluoro-4-((((5-(methyl-d3)pyrimidin-2-yl)methyl)amino)methyl)piperidin-1-yl)methanone]",8.4%,−7.7%
"[2H]C([2H])([2H])c1cnc(C([2H])([2H])NCC2(F)CCN(C(=O)c3ccc(F)c(Cl)c3)CC2)nc1 [Example 11, (3-chloro-4-fluorophenyl)(4-fluoro-4-((((5-(methyl-d3)pyrimidin-2-yl)methyl-d2)amino)methyl)piperidin-1-yl)methanone]",5.5%,−5.2%
"[2H]C([2H])([2H])c1ccc(C([2H])([2H])NCC2(F)CCN(C(=O)c3ccc(F)c(Cl)c3)CC2)nc1 [Example 4, (3-chloro-4-fluorophenyl)(4-fluoro-4-((((5-(methyl-d3)pyridin-2-yl)methyl-d2)amino)methyl)piperidin-1-yl)methanone]",−5.1%,5.4%
"[2H]C([2H])(NCC1(F)CCN(C(=O)c2ccc(F)c(Cl)c2)CC1)c1ccc(C)cn1 [Example 5, (3-chloro-4-fluorophenyl)(4-fluoro-4-((((5-methylpyridin-2-yl)methyl-d2)amino)methyl)piperidin-1-yl)methanone]",−6.7%,7.2%
"[2H]C([2H])(NCc1ncc(C)cn1)C1(F)CCN(C(=O)c2ccc(F)c(Cl)c2)CC1 [Example 12, (3-chloro-4-fluorophenyl)(4-fluoro-4-((((5-methylpyrimidin-2-yl)methyl)amino)methyl-d2)piperidin-1-yl)methanone]",2.1%,−2.1%
"Cc1ccc(CNCC2(F)CCN(C(=O)c3ccc(F)c(Cl)c3)CC2)nc1 [Example 1, (3-chloro-4-fluorophenyl)(4-fluoro-4-((((5-methylpyridin-2-yl)methyl)amino)methyl)piperidin-1-yl)methanone, reference compound]",0%,0%
"[2H]C([2H])([2H])c1ccc(CNCC2(F)CCN(C(=O)c3ccc(F)c(Cl)c3)CC2)nc1 [Example 3, (3-chloro-4-fluorophenyl)(4-fluoro-4-((((5-(methyl-d3)pyridin-2-yl)methyl)amino)methyl)piperidin-1-yl)methanone]",−5. %,5.6%
"[2H]C([2H])(NCc1ccc(C)cn1)C1(F)CCN(C(=O)c2ccc(F)c(Cl)c2)CC1 [Example 2, (3-chloro-4-fluorophenyl)(4-fluoro-4-((((5-methylpyridin-2-yl)methyl)amino)methyl-d2)piperidin-1-yl)methanone]",−7.5%,8.4%
"[2H]C(NCc1ccc(C)cn1)C1(F)C([2H])([2H])C([2H])([2H])N(C(=O)c2ccc(F)c(Cl)c2)C([2H])([2H])C1([2H])[2H] (centres unmarked) [Example 7, ([1-[(3-chloro-4-fluorophenyl)carbonyl]-4-fluoro(d8)piperidin-4-yl](d)methyl)[(5-methylpyridin-2-yl)methyl]amine]",−5.8%,6.2%
"[2H]C([2H])([2H])c1ccc(C([2H])([2H])NC([2H])([2H])C2(F)CCN(C(=O)c3ccc(F)c(Cl)c3)CC2)nc1 [Example 6, (3-chloro-4-fluorophenyl)(4-fluoro-4-((((5-(methyl-d3)pyridin-2-yl)methyl-d2)amino)methyl-d2)piperidin-1-yl)methanone]",−9.1%,10.0%
"[2H]C(NCc1ncc(C)cn1)C1(F)C([2H])([2H])C([2H])([2H])N(C(=O)c2ccc(F)c(Cl)c2)C([2H])([2H])C1([2H])[2H] (centres unmarked) [Example 13, ([1-[(3-chloro-4-fluorophenyl)carbonyl]-4-fluoro(d8)piperidin-4-yl](d)methyl)[(5-methylpyrimidin-2-yl)methyl]amine]",−0.9%,0.9%
"Cc1cnc(CNCC2(F)CCN(C(=O)c3ccc(F)c(Cl)c3)CC2)nc1 [Example 8, (3-chloro-4-fluorophenyl)(4-fluoro-4-((((5-methylpyrimidin-2-yl)methyl)amino)methyl)piperidin-1-yl)methanone, reference compound]",0%,0%
"[2H]C([2H])(NCC1(F)CCN(C(=O)c2ccc(F)c(Cl)c2)CC1)c1ncc(C)cn1 [Example 9, (3-chloro-4-fluorophenyl)(4-fluoro-4-((((5-methylpyrimidin-2-yl)methyl-d2)amino)methyl)piperidin-1-yl)methanone]",3.7%,−3.5%
